From ChEMBL document CHEMBL4673375, “Discovery of a series of 1H-pyrrolo[2,3-b]pyridine compounds as potent TNIK inhibitors” (Bioorg Med Chem Lett, 2021) come the findings set out here.

The target in assay [1] is T1, TRAF2 and NCK-interacting protein kinase (Homo sapiens, UniProt Q9UKE5). The assay can be described thus: Inhibition of TNIK (unknown origin).
Target sequence in this assay (Q9UKE5 whole entry): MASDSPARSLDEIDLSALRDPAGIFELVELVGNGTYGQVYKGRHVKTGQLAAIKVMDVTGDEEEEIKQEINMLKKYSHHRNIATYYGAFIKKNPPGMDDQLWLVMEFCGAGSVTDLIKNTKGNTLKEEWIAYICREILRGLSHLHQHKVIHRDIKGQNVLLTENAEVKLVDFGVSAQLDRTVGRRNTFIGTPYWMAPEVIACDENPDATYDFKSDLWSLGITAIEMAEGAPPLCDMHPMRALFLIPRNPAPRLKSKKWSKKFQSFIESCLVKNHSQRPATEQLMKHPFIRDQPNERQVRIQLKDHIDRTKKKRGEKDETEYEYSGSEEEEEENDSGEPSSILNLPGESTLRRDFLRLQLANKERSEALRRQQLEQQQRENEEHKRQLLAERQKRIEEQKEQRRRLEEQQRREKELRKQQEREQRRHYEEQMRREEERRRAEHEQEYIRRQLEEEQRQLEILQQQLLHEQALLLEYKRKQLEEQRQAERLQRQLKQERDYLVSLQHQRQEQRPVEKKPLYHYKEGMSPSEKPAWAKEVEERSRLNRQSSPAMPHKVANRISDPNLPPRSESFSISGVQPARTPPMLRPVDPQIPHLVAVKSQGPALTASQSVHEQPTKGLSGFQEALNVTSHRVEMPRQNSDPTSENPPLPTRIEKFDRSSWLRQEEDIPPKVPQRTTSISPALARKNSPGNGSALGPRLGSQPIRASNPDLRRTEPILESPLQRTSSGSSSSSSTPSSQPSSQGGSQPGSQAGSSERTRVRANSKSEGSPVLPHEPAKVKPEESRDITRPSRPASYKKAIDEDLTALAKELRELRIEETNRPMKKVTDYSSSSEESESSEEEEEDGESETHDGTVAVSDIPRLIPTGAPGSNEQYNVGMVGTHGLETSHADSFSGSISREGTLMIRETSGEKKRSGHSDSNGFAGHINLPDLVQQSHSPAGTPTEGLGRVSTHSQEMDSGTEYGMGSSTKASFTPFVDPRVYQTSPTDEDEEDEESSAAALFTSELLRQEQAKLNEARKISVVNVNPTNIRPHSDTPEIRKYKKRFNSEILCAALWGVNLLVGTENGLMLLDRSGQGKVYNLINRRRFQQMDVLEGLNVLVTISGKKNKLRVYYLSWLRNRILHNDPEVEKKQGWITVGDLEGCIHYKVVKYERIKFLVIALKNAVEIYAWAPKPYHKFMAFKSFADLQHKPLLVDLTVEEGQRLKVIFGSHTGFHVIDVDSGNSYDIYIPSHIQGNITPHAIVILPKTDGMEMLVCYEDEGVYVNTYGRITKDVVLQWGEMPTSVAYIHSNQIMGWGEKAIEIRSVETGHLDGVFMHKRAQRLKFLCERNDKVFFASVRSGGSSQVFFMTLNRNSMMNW
Assay [2] has as its target T1, TRAF2 and NCK-interacting protein kinase. The assay can be described thus: Inhibition of TNIK in human Jurkat cells assessed as reduction in PMA/anti-CD3 antibody-induced IL2 level incubated for 24 hrs by ELISA. The format is cell-based. As to conditions: dose 1-10 µM.
Target sequence in this assay (Q9UKE5 whole entry, looked up): as the sequence (Q9UKE5 whole entry) above
The target is the same in assay [3]. The assay can be described thus: Inhibition of TNIK in PMA/anti-CD3 antibody-stimulated human Jurkat cells assessed as IL2 level at 10 uM incubated for 24 hrs by ELISA. The format is cell-based.
Target sequence in this assay (Q9UKE5 whole entry, looked up): as the sequence (Q9UKE5 whole entry) above
For assay [4] the target is unchanged. The assay can be described thus: Inhibition of TNIK in human Jurkat cells assessed as reduction in PMA/anti-CD3 antibody-induced IL2 secretion at 1 uM incubated for 24 hrs by ELISA. The format is cell-based. A general note: In an ELISA, binding on a coated surface is turned into a signal by an enzyme label.
Target sequence in this assay (Q9UKE5 whole entry, looked up): as the sequence (Q9UKE5 whole entry) above

In general, IC50 refers to the concentration at which inhibition is half-maximal.

Structures are written as SMILES. Activity calls are given as the source filed them. The calls are words filed in the database; no cut-off is given here.

Consider `CN1CCN(Cc2ccc(-c3cnc4[nH]cc(-c5ccc6[nH]ccc6c5)c4c3)cc2)CC1`, for which the IC50 in assay [1] was determined as 5200 pM.
In turn, `CNC(=O)c1cccc(-c2cnc3[nH]cc(-c4cc(C#N)c(Cl)c(NS(C)(=O)=O)c4)c3c2)c1` yielded an IC50 in assay [1] of 300 pM.
`CN1CCN(Cc2ccc(-c3cnc4[nH]cc(-c5cc(C#N)cc(NS(=O)(=O)C6CC6)c5)c4c3)cc2)CC1`: in assay [2], the inhibition entry was “Dose-dependent effect”. The IC50 in assay [1] is 190 pM. In assay [3], the Activity is under 25 pg/mL.
`CN1CCN(Cc2ccc(-c3cnc4[nH]cc(-c5cc(C#N)c(Cl)c(NS(C)(=O)=O)c5)c4c3)cc2)CC1`: the inhibition entry in assay [2] is “Dose-dependent effect”. This compound had an IC50 in assay [1] of 430 pM.
As for `CNC(=O)c1cccc(-c2c[nH]c3ncc(-c4ccc(CN5CCN(C)CC5)cc4)cc23)c1`, 27000 pM corresponded to half-maximal inhibition in assay [1] (IC50).
The same measure, in the same setting: the result for `CN1CCN(Cc2ccc(-c3cnc4[nH]cc(-c5cccc(C(=O)N(C)C)c5)c4c3)cc2)CC1` reads 43000 pM.
Still for that read-out and setting: the result for `CN1CCN(Cc2ccc(-c3cnc4[nH]cc(-c5cccc6ccccc56)c4c3)cc2)CC1` reads 31000 pM; that for `CN1CCN(Cc2ccc(-c3cnc4[nH]cc(-c5cccc(N)c5)c4c3)cc2)CC1`, 15000 pM.
With `CN1CCC(n2cc(-c3cnc4[nH]cc(-c5cc(C#N)c(Cl)c(NS(C)(=O)=O)c5)c4c3)cn2)CC1`, the inhibition entry in assay [2] is “Dose-dependent effect”. Besides, the IC50 in assay [1] was determined as 680 pM. Moreover, the Activity in assay [3] is under 25 pg/mL.
`CN1CCN(Cc2ccc(-c3cnc4[nH]cc(-c5ccc(F)cc5)c4c3)cc2)CC1` displayed an IC50 in assay [1] of 19000 pM.
`CS(=O)(=O)Nc1cc(C#N)cc(-c2c[nH]c3ncc(-c4cccc(C(=O)N5CCCCC5)c4)cc23)c1` registered an IC50 in assay [1] of 220 pM.
`CN1CCN(Cc2ccc(-c3cnc4[nH]cc(-c5ccccc5)c4c3)cc2)CC1` displayed an IC50 in assay [1] of 14000 pM.
On to `CC(C)(Oc1ccc(-c2cnc3[nH]cc(-c4cc(C#N)cc(NS(C)(=O)=O)c4)c3c2)cc1)C(=O)O`, for which the inhibition entry in assay [2] was “Dose-dependent effect”. This compound also returned an IC50 in assay [1] of 330 pM.
In turn, `CN1CCN(Cc2ccc(-c3cnc4[nH]cc(-c5ccc6[nH]ncc6c5)c4c3)cc2)CC1` registered an IC50 in assay [1] of 440 pM.
In the case of `CN1CCN(Cc2ccc(-c3cnc4[nH]cc(-c5ccc6[nH]cnc6c5)c4c3)cc2)CC1`, the IC50 in assay [1] worked out at 3800 pM.
Compound `CNC(=O)c1cccc(-c2cnc3[nH]cc(-c4cc(C#N)cc(NS(C)(=O)=O)c4)c3c2)c1` yielded an IC50 in assay [1] of 180 pM.
Regarding `CN1CCN(C(=O)c2cccc(-c3cnc4[nH]cc(-c5cc(C#N)cc(NS(C)(=O)=O)c5)c4c3)c2)CC1`, 250 pM corresponded to half-maximal inhibition in assay [1] (IC50).
`CN1CCN(Cc2ccc(-c3cnc4[nH]cc(-c5cccc(C#N)c5)c4c3)cc2)CC1` came in with a half-maximal inhibitory concentration (IC50) in assay [1] of 910 pM.
Turning to `CC(C)(C(=O)O)c1ccc(-c2cnc3[nH]cc(-c4cc(C#N)cc(NS(C)(=O)=O)c4)c3c2)cc1`, in assay [2], the inhibition entry was “Dose-dependent effect”. In assay [1], this compound yielded an IC50 of 470 pM.
Consider `CS(=O)(=O)Nc1cc(C#N)cc(-c2c[nH]c3ncc(-c4cccc(C(=O)NC5CC5)c4)cc23)c1`, for which the IC50 in assay [1] is 120 pM.
As for `Cn1cc(-c2ccc(-c3cnc4[nH]cc(-c5cc(C#N)cc(NS(C)(=O)=O)c5)c4c3)cc2)cn1`, in assay [1], the IC50 was 800 pM.
In assay [1], `CN1CCN(Cc2ccc(-c3cnc4[nH]cc(-c5cccc(NS(C)(=O)=O)c5)c4c3)cc2)CC1` came in with an IC50 of 7100 pM.
`CN1CCN(Cc2ccc(-c3cnc4[nH]cc(-c5ccc(NS(C)(=O)=O)cc5)c4c3)cc2)CC1` yielded an IC50 in assay [1] of 18000 pM.
On the same count and under the same terms, the result for `CC(=O)Nc1cccc(-c2c[nH]c3ncc(-c4ccc(CN5CCN(C)CC5)cc4)cc23)c1` reads 12000 pM.
As to `CN1CCN(Cc2ccc(-c3cnc4[nH]cc(-c5cc(C#N)cc(NS(C)(=O)=O)c5)c4c3)cc2)CC1`, the inhibition entry in assay [2] was “Dose-dependent effect”. This compound also had an IC50 in assay [1] of 130 pM. The Activity in assay [3] is under 25 pg/mL.
As for `CN1CCN(Cc2ccc(-c3cnc4[nH]cc(-c5cnc6[nH]ncc6c5)c4c3)cc2)CC1`, it took 7900 pM to reach half-maximal inhibition in assay [1] (IC50).
In assay [1], `CN1CCN(Cc2ccc(-c3cnc4[nH]cc(-c5cc(C#N)c6[nH]ncc6c5)c4c3)cc2)CC1` displayed an IC50 of 230 pM. In addition, in assay [3], the Activity was under 25 pg/mL. Moreover, the inhibition entry in assay [4] is “inactive”.
In the case of `CN(C)C1CCN(C(=O)c2cccc(-c3cnc4[nH]cc(-c5cc(C#N)cc(NS(C)(=O)=O)c5)c4c3)c2)C1` (stereo not drawn), half-maximal inhibition in assay [1] (IC50) required 220 pM.
Same read-out and setting: the result for `c1ccc(-c2cnc3[nH]cc(-c4ccccc4)c3c2)cc1` reads 9200 pM; that for `CS(=O)(=O)Nc1cc(C#N)cc(-c2c[nH]c3ncc(-c4cccc(C(=O)N5CCCC5)c4)cc23)c1`, 210 pM.
With `CN1CCN(Cc2ccc(-c3cnc4[nH]cc(-c5ccc(Cl)cc5)c4c3)cc2)CC1`, half-maximal inhibition in assay [1] (IC50) required 14000 pM.
Take `CN1CCN(C(=O)c2ccc(-c3cnc4[nH]cc(-c5cc(C#N)cc(NS(C)(=O)=O)c5)c4c3)cc2)CC1`: in assay [1], the midpoint of inhibition, the IC50, lay at 210 pM.
